This is an account of results in US20090062206A1 (UNIVERSITY OF SOUTH FLORIDA, priority 2006, published 2009).

Like-named read-outs stand apart in the source and are kept apart here.

For data set [1], the system named is human renal-cell carcinoma cells (ATCC CRL-2175). Kind of data set: Decrease in number of human renal-cell carcinoma cells (cell counting on coverslips). Type of data set: cell-based. To be noted: for number of renal carcinoma cells remaining per high powered field: control 89±7 cells. The method, then:
A cell line (ATCC number CRL-2175) of human renal-cell carcinoma cells were purchased from American Type Culture Collection (ATCC, Manassas, Va.). This renal cancer cell line was established by A. Leibovitz in 1972 from a renal-cell carcinoma removed from a person with blood type O, Rh+.
Propagation of these renal cancer cells was in Leibovitz's L-15 medium supplemented with 10% fetal bovine serum (Atlanta Biologicals, Lawrenceville, Ga.) at a temperature of 37° C. in a CO2 free environment as recommended by the ATCC. Cells were dispensed in new flasks with subculturing two to three times per week.
After the renal-cell carcinoma cells were subcultured for 24 hours they were then seeded to coverslips in 24-well plates (Nunclon™, Roskilde, Denmark) with 1 mL of the above media. There were 65,000 cells seeded to each coverslip. After 24 hours, the well plates were washed twice with phosphate-buffered saline to remove the fetal bovine serum. Removal of serum was carried out to completely remove all variables (EGF, etc.) present in serum in order that interpretation of any data obtained would be straightforward. After 24 hours of serum deprivation, media volume was reduced to 250 μL per well with, or without, the respective peptide hormones in dose-response curves with concentrations up to and including 100 μM (1% of this volume). Human renal carcinoma cells were then incubated for various periods of time [24, 48, 72, and 96 hours]. The number of renal carcinoma cells were then counted with a cell counter (Thomas Scientific Swedesboro, N. J.) evaluating ten fields of the microscope slide at x40 along the X-axis with an Olympus BH-2 microscope (Atlanta, Ga.). This evaluation was repeated on six separate occasions with the number of renal carcinoma cells reflecting 60 observations for each group, i.e., 60 observations for controls and 60 observations for each of the six groups with respective peptide hormones. The peptide hormones used in this investigation were from Phoenix Pharmaceuticals, Inc., Belmont, Calif. In the Results section, the number of cancer cells reported is the number of cells in each individual field. Ten fields were examined on each microscope slide. The results of the ten fields were pooled and the average of the ten fields is illustrated in the Results section.
The number of renal carcinoma cells after 24 hours without the addition of any of the peptide hormones averaged 89±7 cells per high powered field when ten fields of the coverslip were evaluated at ×40 along the X-axis with an Olympus BH2 microscope. This evaluation was repeated on six separate occasions, with the above number reflecting 60 observations by two independent investigators of the control group and each of the five groups with the addition of one of the peptide hormones. The same number of observations were done in a seventh group where four of the peptides were added together (each at 1 μM) to determine if they may have an additive effect.

A further data set has as its target NPR-A receptor (Homo sapiens, UniProt P16066). To be noted: cited from earlier work.
For data set [2], the system named is human renal carcinoma cells. Kind of data set: DNA synthesis by bromodeoxyuridine (BrdU) incorporation into renal carcinoma cells. The format is cell-based. Conditions: 1 μM, incubated 24 hours. An excerpt: To investigate whether these peptide hormones were inhibiting DNA synthesis, bromodeoxyuridine (BrdU) incorporation into the renal carcinoma cells was utilized as previously described from our laboratory. BrdU was from BD Bioscience, San Jose, Calif.

The next data set addresses NPR-C receptor (Homo sapiens, UniProt P17342). Conditions: cited from earlier work.
The conditions of data set [3]: human or animal subjects; cited from earlier work.
The test system of the next data set is prostate adenocarcinoma. Conditions: 1 μM; cited from earlier work.
In data set [4] the test system is small-cell lung cancer cells. Conditions: 1 μM; cited from earlier work.
Where [5] appears, read: 1 μM, at 48 hours after 24 hour exposure.
Where [6] appears, read: 1 μM, at 72 hours after 24 hour exposure.
[7] abbreviates: 1 μM, at 96 hours after 24 hour exposure.
Setting [8] is: 10 μM, at 48 hours after 24 hour exposure.
The mark [9] stands for this setting: 10 μM, at 72 hours after 24 hour exposure.
The mark [10] stands for this setting: 10 μM, at 96 hours after 24 hour exposure.
[11] abbreviates: 100 μM, at 48 hours after 24 hour exposure.
[12] abbreviates: 100 μM, at 72 hours after 24 hour exposure.
Where [13] appears, read: 100 μM, at 96 hours after 24 hour exposure.

NPR-C receptor, sequence (P17342 27-541): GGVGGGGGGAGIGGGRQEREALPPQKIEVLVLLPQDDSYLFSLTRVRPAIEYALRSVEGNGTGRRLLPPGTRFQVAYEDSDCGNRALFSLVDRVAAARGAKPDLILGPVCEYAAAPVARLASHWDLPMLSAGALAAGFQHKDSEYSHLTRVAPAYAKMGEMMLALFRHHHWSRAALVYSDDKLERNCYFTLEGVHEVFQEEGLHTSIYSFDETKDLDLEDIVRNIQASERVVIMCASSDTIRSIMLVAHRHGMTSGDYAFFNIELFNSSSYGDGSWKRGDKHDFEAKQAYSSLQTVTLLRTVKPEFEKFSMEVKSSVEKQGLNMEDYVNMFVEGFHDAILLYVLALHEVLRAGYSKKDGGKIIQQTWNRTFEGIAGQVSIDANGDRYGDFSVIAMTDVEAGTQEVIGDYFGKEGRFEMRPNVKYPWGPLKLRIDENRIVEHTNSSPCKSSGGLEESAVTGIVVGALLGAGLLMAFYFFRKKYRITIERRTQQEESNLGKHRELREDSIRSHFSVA
NPR-A receptor, sequence (P16066 33-1061): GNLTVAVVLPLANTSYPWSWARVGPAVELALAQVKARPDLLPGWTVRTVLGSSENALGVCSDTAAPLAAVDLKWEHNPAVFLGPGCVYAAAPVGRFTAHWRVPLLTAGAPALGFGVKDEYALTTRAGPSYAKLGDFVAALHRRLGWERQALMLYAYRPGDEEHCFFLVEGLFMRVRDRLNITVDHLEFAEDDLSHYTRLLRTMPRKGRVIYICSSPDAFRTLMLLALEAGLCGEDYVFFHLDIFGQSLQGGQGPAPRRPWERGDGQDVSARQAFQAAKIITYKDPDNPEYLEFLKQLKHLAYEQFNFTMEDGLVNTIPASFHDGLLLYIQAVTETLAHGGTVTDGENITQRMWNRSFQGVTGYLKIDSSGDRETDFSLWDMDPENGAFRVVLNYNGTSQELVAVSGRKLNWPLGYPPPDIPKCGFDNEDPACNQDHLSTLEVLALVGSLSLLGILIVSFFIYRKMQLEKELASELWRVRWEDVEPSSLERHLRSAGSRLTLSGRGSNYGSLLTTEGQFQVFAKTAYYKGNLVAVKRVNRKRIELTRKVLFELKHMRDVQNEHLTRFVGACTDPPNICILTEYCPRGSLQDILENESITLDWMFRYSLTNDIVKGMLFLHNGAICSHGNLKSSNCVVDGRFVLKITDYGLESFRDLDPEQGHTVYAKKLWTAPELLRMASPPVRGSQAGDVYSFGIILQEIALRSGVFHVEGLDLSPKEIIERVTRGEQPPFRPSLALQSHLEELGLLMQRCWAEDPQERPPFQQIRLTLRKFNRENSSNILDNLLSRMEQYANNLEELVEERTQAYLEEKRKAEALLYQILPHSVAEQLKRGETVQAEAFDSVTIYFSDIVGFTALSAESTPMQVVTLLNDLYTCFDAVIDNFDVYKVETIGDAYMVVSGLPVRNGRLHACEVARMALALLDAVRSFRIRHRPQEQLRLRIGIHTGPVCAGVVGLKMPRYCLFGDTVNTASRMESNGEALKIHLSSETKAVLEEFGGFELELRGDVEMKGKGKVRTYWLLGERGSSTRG

As to Urodilatin, the “decrease in number of renal carcinoma cells” value (“decrease in number” for short) in data set [1] (1 μM, 24 hours) is on record as 24%; in data set [1] (setting [5]) it was 17%; in data set [1] (setting [6]), 15%; in data set [1] (setting [7]) it was 10%; in data set [1] (10 μM, 24 hours) it was 46%; in data set [1] (setting [8]), 46%. The “decrease in number” value amounted to 43% in data set [1] (setting [9]); 37% in data set [1] (setting [10]); 66% in data set [1] (100 μM, 24 hours); 65% in data set [1] (setting [11]); 64% in data set [1] (setting [12]); 58% in data set [1] (setting [13]). Also, the “number of renal carcinoma cells remaining per high powered field” value in data set [1] (100 μM, 24 hours) turned out to be 30±2 cells. In data set [1] (within 24 hours, concentration not given), the “cancer cells killed (maximum)” value is “up to 81%”. Further, the “binding curves compared with ANP” value on NPR-A receptor is recorded as “superimposable with ANP”; on NPR-A receptor (listed as urodilatin), “nearly superimposable binding curves”; at NPR-C receptor it was “superimposable with ANP”; at NPR-C receptor (listed as urodilatin) it was “nearly superimposable binding curves”. In addition, the “inhibition of DNA synthesis” value in data set [2] is 65%.

As to `CC[C@H](C)[C@@H]1NC(=O)[C@H](CCCNC(=N)N)NC(=O)[C@H](CC(=O)O)NC(=O)[C@H](CCSC)NC(=O)[C@H](CCCNC(=N)N)NC(=O)CNC(=O)CNC(=O)[C@H](Cc2ccccc2)NC(=O)[C@@H](NC(=O)[C@H](CO)NC(=O)[C@H](CO)NC(=O)[C@H](CCCNC(=N)N)NC(=O)[C@H](CCCNC(=N)N)NC(=O)[C@H](CC(C)C)NC(=O)[C@@H](N)CO)CSSC[C@@H](C(=O)N[C@@H](CC(N)=O)C(=O)N[C@@H](CO)C(=O)N[C@@H](Cc2ccccc2)C(=O)N[C@@H](CCCNC(=N)N)C(=O)N[C@@H](Cc2ccc(O)cc2)C(=O)O)NC(=O)CNC(=O)[C@H](CC(C)C)NC(=O)CNC(=O)[C@H](CO)NC(=O)[C@H](CCC(N)=O)NC(=O)[C@H](C)NC(=O)CNC1=O` [ANP], the side effect hypotension result in data set [3] is reported as “observed”. The “inhibition of DNA synthesis” value in data set [2] came out at 77%.

In the case of “kaliuretic peptide: peptide hormone within the 126 amino acid ANP prohormone synthesized in the heart (SSDRSALLKSKLRALLTAPR; Kaliuretic peptide; UniProt P01160 104-123, looked up)”, the “decrease in cancer cell number” value (in the data set on prostate adenocarcinoma; in data set [4]) was 30% throughout. Also, the “decrease in number” value was 39% in data set [1] (1 μM, 24 hours); 35% in data set [1] (setting [5]); 31% in data set [1] (setting [6]); 25% in data set [1] (setting [7]); 54% in data set [1] (10 μM, 24 hours); 52% in data set [1] (setting [8]). Moreover, the “decrease in number” value is given as 47% in data set [1] (setting [9]); 40% in data set [1] (setting [10]); 74% in data set [1] (100 μM, 24 hours); 76% in data set [1] (setting [11]); 71% in data set [1] (setting [12]); 64% in data set [1] (setting [13]). Besides, in data set [1] (100 μM, 24 hours), the “number of renal carcinoma cells remaining per high powered field” value is given as 23±3 cells. Also, the side effect hypotension result in data set [3] is “never”. The “inhibition of DNA synthesis” value in data set [2] is reported as 74%.

For “vessel dilator: peptide hormone within the 126 amino acid ANP prohormone synthesized in the heart (EVVPPQVLSEPNEEAGAALSPLPEVPPWTGEVSPAQR; Vessel dilator; UniProt P01160 56-92, looked up)”, the “decrease in number” value worked out at 59% in data set [1] (1 μM, 24 hours); 55% in data set [1] (setting [5]); 51% in data set [1] (setting [6]); 43% in data set [1] (setting [7]); 62% in data set [1] (10 μM, 24 hours); 66% in data set [1] (setting [8]). In addition, the “decrease in number” value was found to be 64% in data set [1] (setting [9]); 55% in data set [1] (setting [10]); 81% in data set [1] (100 μM, 24 hours); 81% in data set [1] (setting [11]); 80% in data set [1] (setting [12]); 68% in data set [1] (setting [13]). Also, in data set [1] (100 μM, 24 hours), the “number of renal carcinoma cells remaining per high powered field” value came out at 17±4 cells. The side effect hypotension entry in data set [3] was “never”. For the same molecule, the “inhibition of DNA synthesis” value in data set [2] was found to be 84%.

Take “LANP: long acting natriuretic peptide, peptide hormone within the 126 amino acid ANP prohormone (NPMYNAVSNADLMDFKNLLDHLEEKMPLED; Long-acting natriuretic peptide; UniProt P01160 26-55, looked up)”: the “decrease in number” value in data set [1] (setting [5]) amounted to 30%; in data set [1] (setting [6]), 30%; in data set [1] (setting [7]), 24%; in data set [1] (10 μM, 24 hours) it was 55%; in data set [1] (setting [8]) it was 50%; in data set [1] (setting [9]), 47%. For the same molecule, the “decrease in number” value in data set [1] (setting [10]) stood at 39%; in data set [1] (100 μM, 24 hours), 70%; in data set [1] (setting [11]) it was 70%; in data set [1] (setting [12]), 70%; in data set [1] (setting [13]), 61%. Besides, the “number of renal carcinoma cells remaining per high powered field” value in data set [1] (100 μM, 24 hours) turned out to be 26±2 cells. In data set [3], the side effect hypotension entry is recorded as “never”. In addition, the “inhibition of DNA synthesis” value in data set [2] turned out to be 70%.
